Data as given in article PMC9844085, “Bioinformatics-Structural Approach to the Search for New D-Amino Acid Oxidases” (Acta Naturae, 2022).

Molecular target: T1, NhyDAAO (Natronosporangium hydrolyticum, UniProt A0A895YFV4)
T1 construct: gene JQS43_10680; recombinant, gene cloned, expression in E. coli in progress
T1 sequence (A0A895YFV4 1-316): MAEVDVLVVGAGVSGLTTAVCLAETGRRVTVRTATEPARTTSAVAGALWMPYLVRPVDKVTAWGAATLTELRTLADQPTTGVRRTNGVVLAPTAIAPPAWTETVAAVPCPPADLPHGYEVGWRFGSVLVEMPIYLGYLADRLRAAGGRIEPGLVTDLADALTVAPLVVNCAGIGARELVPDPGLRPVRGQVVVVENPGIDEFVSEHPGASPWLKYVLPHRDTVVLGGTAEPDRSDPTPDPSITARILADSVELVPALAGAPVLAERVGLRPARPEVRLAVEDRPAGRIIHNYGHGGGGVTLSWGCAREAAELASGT
Assay: D-amino acid oxidase activity, preliminary experiments, method not given
Format: cell-based
Conditions: conditions and enzyme purity not told; named among the best substrates

SMILES | D-amino acid oxidase activity, preliminary experiments, method not given
CC(C)C[C@@H](N)C(=O)O [D-Leu] | Preliminary experiments confirmed that D-Leu and D-Phe are the best substrates for NhyDAAO
N[C@H](Cc1ccccc1)C(=O)O [D-Phe] | Preliminary experiments confirmed that D-Leu and D-Phe are the best substrates for NhyDAAO
